pIC50: −log10 of the molar value. Each block holds one compound with its values, some of them ahead of it.
How the values were obtained:
Cytochrome P450 2C8 = biological target: T1, Cytochrome P450 2C8 (Homo sapiens, UniProt P10632); test: Inhibition of CYP2C8 in human liver microsomes using paclitaxel as substrate after 5 to 60 mins by LC-MS/MS analysis; assay type: ADME, Microsome
T1 sequence (P10632 whole entry): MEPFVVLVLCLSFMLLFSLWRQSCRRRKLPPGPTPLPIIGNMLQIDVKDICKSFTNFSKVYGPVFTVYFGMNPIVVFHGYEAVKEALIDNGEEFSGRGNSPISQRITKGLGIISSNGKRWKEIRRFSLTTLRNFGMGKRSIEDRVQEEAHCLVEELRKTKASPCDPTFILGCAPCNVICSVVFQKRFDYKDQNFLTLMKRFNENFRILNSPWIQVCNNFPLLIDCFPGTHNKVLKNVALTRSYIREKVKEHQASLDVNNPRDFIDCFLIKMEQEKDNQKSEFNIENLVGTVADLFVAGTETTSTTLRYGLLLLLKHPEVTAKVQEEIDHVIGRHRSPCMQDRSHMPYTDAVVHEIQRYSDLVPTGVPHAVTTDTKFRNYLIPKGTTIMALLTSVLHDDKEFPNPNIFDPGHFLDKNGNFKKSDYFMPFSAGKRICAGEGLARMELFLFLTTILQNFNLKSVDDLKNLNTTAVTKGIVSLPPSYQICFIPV

Cytochrome P450 2D6 [1] = biological target: T2, Cytochrome P450 2D6 (Homo sapiens, UniProt P10635); test: Inhibition of CYP2D6 in human liver microsomes using dextromethorphan as substrate after 5 to 60 mins by LC-MS/MS analysis; assay type: ADME, Microsome
Cytochrome P450 2C19 = Cytochrome P450 2C19 (Homo sapiens, UniProt P33261); test: Inhibition of CYP2C19 in human liver microsomes using mephenytoin as substrate after 5 to 60 mins by LC-MS/MS analysis; assay type: ADME, Microsome
Cytochrome P450 2C9 = Cytochrome P450 2C9 (Homo sapiens, UniProt P11712); test: Inhibition of CYP2C9 in human liver microsomes using diclofenac as substrate after 5 to 60 mins by LC-MS/MS analysis; assay type: ADME, Microsome
Cytochrome P450 1A2 = biological target: T3, Cytochrome P450 1A2 (Homo sapiens, UniProt P05177); test: Inhibition of CYP1A2 in human liver microsomes using phenacetin as substrate after 5 to 60 mins by LC-MS/MS analysis; assay type: ADME, Microsome
T3 sequence (P05177 whole entry): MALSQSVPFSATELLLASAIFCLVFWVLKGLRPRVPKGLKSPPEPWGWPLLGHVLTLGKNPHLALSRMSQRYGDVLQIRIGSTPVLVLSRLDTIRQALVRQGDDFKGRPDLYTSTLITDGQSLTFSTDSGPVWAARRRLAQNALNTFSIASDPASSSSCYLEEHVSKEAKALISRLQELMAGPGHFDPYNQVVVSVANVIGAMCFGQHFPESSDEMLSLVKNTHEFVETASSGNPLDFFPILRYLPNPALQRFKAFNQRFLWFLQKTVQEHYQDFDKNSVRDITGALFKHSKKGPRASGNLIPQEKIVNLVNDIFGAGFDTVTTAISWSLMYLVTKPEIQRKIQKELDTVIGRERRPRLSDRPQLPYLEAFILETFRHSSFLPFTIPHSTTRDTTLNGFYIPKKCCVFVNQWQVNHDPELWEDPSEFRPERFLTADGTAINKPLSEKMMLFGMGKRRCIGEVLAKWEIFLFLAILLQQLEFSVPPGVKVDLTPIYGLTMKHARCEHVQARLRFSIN

[2] = Blood clearance in Sprague-Dawley rat at 2.2 mg/kg, iv by LC-MS/MS analysis; assay type: ADME, organism-based; parameters: dose 2.2 mg/kg, route intravenous; conditions: whole blood
[3] = biological target: T4, Eukaryotic translation initiation factor 2-alpha kinase 3 (Homo sapiens, UniProt Q9NZJ5); test: Inhibition of thapsigargin-induced autophosphorylation of PERK in human A549 cells preincubated for 1 hr followed by thapsigargin-induction measured after 1 hr by Western blotting analysis; assay type: cell-based
T4 sequence (Q9NZJ5 whole entry): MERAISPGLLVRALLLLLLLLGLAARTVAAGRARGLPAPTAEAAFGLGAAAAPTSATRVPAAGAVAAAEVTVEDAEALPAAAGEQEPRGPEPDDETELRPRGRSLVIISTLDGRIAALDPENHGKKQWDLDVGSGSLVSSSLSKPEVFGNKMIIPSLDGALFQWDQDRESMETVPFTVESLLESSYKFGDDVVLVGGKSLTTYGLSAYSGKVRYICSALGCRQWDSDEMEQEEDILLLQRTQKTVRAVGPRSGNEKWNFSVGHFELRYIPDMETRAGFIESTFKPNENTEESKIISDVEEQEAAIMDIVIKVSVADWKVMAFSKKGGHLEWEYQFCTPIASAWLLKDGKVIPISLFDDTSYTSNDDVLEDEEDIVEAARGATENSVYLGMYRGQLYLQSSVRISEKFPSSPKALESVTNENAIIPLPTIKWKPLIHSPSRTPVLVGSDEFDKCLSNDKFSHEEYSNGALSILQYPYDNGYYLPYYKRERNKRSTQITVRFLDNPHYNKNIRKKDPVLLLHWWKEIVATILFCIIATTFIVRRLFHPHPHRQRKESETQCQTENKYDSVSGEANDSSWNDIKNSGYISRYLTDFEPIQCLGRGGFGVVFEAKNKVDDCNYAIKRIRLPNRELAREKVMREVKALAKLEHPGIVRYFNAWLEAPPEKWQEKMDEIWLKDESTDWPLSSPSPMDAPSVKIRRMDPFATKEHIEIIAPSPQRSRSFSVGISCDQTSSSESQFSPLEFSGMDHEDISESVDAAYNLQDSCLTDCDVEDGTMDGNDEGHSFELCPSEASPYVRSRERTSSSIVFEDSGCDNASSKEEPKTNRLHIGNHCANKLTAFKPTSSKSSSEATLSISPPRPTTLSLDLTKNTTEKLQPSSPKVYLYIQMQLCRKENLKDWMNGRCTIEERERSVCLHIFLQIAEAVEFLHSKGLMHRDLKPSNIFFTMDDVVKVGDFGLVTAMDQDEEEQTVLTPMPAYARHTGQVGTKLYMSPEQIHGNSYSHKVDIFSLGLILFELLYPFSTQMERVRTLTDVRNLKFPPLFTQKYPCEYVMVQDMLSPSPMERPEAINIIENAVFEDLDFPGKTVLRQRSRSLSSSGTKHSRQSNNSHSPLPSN

[4] = biological target: T4, Eukaryotic translation initiation factor 2-alpha kinase 3; test: Inhibition of GST-tagged PERK cytoplasmic domain (536 to 1116) (unknown origin) assessed as biotinylated His6-tagged EIF2alpha phosphorylation preincubated for 30 mins followed by ATP and eIF2alpha addition measured after 1 hr by HTRF assay
[5] = Oral bioavailability in beagle dog at 5.2 mg/kg by LC-MS/MS analysis; assay type: ADME, organism-based, Canis lupus familiaris; conditions: in vivo
[6] = Oral bioavailability in Sprague-Dawley rat at 4.3 mg/kg by LC-MS/MS analysis; assay type: ADME, organism-based; conditions: in vivo
[7] = Oral bioavailability in CD1 mouse at 13.4 mg/kg by LC-MS/MS analysis; assay type: ADME, organism-based; conditions: in vivo
[8] = AUC (0 to infinity) in beagle dog at 5.2 mg/kg, po by LC-MS/MS analysis; assay type: ADME, organism-based, Canis lupus familiaris; parameters: time infinity, dose 5.2 mg/kg, route oral; conditions: plasma
[9] = AUC (0 to infinity) in Sprague-Dawley rat at 4.3 mg/kg, po by LC-MS/MS analysis; assay type: ADME, organism-based; parameters: time infinity, dose 4.3 mg/kg, route oral; conditions: plasma
[10] = AUC (0 to infinity) in CD1 mouse at 13.4 mg/kg, po by LC-MS/MS analysis; assay type: ADME, organism-based; parameters: time infinity, dose 13.4 mg/kg, route oral; conditions: plasma
[11] = Half life in beagle dog at 2.9 mg/kg, iv by LC-MS/MS analysis; assay type: ADME, organism-based, Canis lupus familiaris; parameters: dose 2.9 mg/kg, route intravenous; conditions: in vivo
[12] = Half life in Sprague-Dawley rat at 2.2 mg/kg, iv by LC-MS/MS analysis; assay type: ADME, organism-based; parameters: dose 2.2 mg/kg, route intravenous; conditions: in vivo
[13] = Half life in CD1 mouse at 2 mg/kg, iv by LC-MS/MS analysis; assay type: ADME, organism-based; parameters: dose 2 mg/kg, route intravenous; conditions: in vivo
[14] = Volume of distribution at steady state in beagle dog at 2.9 mg/kg, iv by LC-MS/MS analysis; assay type: ADME, organism-based, Canis lupus familiaris; parameters: dose 2.9 mg/kg, route intravenous; conditions: in vivo, read-out: Vdss
[15] = Volume of distribution at steady state in Sprague-Dawley rat at 2.2 mg/kg, iv by LC-MS/MS analysis; assay type: ADME, organism-based; parameters: dose 2.2 mg/kg, route intravenous; conditions: in vivo, read-out: Vdss
[16] = Volume of distribution at steady state in CD1 mouse at 2 mg/kg, iv by LC-MS/MS analysis; assay type: ADME, organism-based; parameters: dose 2 mg/kg, route intravenous; conditions: in vivo, read-out: Vdss
[17] = Blood clearance in beagle dog at 2.9 mg/kg, iv by LC-MS/MS analysis; assay type: ADME, organism-based, Canis lupus familiaris; parameters: dose 2.9 mg/kg, route intravenous; conditions: whole blood
[18] = Blood clearance in CD1 mouse at 2 mg/kg, iv by LC-MS/MS analysis; assay type: ADME, organism-based; parameters: dose 2 mg/kg, route intravenous; conditions: whole blood
[19] = AUC (0 to infinity) in beagle dog at 2.9 mg/kg, iv by LC-MS/MS analysis; assay type: ADME, organism-based, Canis lupus familiaris; parameters: time infinity, dose 2.9 mg/kg, route intravenous; conditions: plasma
[20] = AUC (0 to infinity) in Sprague-Dawley rat at 2.2 mg/kg, iv by LC-MS/MS analysis; assay type: ADME, organism-based; parameters: time infinity, dose 2.2 mg/kg, route intravenous; conditions: plasma
[21] = AUC (0 to infinity) in CD1 mouse at 2 mg/kg, iv by LC-MS/MS analysis; assay type: ADME, organism-based; parameters: time infinity, dose 2 mg/kg, route intravenous; conditions: plasma
eIF-2-alpha kinase GCN2 = eIF-2-alpha kinase GCN2 (Homo sapiens, UniProt Q9P2K8); test: Inhibition of GCN2 (unknown origin) assessed as EIF2AK4 phosphorylation
[22] = biological target: Interferon-induced, double-stranded RNA-activated protein kinase (Homo sapiens, UniProt P19525); test: Inhibition of PKR (unknown origin) assessed as EIF2AK2 phosphorylation
[23] = biological target: Eukaryotic translation initiation factor 2-alpha kinase 1 (Homo sapiens, UniProt Q9BQI3); test: Inhibition of HRI (unknown origin) assessed as EIF2AK1 phosphorylation
Cytochrome P450 2D6 [24] = biological target: T2, Cytochrome P450 2D6; test: Inhibition of CYP2D6 in human liver microsomes using bufuralol as substrate after 5 to 60 mins by LC-MS/MS analysis; assay type: ADME, Microsome

Sequence of Cytochrome P450 2C19 (P33261 whole entry): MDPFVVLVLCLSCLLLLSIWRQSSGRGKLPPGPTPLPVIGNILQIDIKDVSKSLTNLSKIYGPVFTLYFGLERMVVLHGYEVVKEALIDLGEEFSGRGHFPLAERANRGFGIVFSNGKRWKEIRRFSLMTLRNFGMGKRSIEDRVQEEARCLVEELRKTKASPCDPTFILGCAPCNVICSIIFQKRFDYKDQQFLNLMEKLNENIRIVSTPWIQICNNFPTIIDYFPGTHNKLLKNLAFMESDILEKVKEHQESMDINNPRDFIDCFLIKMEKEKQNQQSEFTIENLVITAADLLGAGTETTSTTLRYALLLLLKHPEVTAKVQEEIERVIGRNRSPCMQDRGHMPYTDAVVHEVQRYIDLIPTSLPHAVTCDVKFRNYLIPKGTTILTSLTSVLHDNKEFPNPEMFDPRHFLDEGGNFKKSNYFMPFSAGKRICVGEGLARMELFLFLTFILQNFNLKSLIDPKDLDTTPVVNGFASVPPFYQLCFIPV
Sequence of Cytochrome P450 2C9 (P11712 whole entry): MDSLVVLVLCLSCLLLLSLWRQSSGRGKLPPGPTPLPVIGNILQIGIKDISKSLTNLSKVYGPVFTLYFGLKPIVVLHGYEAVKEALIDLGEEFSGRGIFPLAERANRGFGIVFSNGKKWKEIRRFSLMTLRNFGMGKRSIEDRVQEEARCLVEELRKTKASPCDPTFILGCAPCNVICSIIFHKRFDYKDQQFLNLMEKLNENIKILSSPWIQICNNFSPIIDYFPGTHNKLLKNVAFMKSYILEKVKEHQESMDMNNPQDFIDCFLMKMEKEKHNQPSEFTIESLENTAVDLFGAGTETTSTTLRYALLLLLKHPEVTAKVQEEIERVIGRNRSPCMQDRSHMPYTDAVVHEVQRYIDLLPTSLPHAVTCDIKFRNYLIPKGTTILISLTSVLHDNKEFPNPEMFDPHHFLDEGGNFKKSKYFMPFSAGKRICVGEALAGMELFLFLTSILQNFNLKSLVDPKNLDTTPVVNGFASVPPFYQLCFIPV
T2 sequence (P10635 whole entry): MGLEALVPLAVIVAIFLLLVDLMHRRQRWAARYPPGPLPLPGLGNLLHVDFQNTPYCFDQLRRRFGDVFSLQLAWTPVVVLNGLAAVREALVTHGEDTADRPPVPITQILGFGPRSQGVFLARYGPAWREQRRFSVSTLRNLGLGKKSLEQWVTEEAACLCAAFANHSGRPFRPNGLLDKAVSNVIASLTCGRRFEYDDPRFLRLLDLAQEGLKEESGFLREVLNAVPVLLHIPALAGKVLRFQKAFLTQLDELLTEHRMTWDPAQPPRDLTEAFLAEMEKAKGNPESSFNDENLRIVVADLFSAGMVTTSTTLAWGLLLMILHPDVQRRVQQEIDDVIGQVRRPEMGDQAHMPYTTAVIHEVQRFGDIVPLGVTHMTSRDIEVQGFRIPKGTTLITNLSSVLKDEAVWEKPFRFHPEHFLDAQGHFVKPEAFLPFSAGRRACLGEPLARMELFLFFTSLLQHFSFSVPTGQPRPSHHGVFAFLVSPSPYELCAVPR
Sequence of Eukaryotic translation initiation factor 2-alpha kinase 1 (Q9BQI3 whole entry): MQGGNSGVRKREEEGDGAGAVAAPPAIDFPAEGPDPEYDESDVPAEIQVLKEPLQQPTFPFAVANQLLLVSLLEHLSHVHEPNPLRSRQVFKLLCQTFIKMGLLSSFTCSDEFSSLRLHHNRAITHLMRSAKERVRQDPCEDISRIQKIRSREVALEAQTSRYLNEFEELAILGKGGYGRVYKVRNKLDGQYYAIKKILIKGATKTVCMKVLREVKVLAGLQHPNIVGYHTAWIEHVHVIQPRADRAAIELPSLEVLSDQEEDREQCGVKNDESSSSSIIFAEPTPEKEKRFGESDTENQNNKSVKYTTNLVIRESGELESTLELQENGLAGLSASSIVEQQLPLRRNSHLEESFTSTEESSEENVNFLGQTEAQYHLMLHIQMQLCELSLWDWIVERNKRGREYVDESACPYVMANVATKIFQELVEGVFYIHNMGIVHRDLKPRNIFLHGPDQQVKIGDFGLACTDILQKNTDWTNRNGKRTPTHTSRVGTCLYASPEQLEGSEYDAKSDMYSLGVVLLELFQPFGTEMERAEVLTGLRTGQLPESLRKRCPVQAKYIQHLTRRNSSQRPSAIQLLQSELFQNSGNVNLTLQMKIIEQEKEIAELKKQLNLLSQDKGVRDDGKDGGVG
Sequence of Interferon-induced, double-stranded RNA-activated protein kinase (P19525 whole entry): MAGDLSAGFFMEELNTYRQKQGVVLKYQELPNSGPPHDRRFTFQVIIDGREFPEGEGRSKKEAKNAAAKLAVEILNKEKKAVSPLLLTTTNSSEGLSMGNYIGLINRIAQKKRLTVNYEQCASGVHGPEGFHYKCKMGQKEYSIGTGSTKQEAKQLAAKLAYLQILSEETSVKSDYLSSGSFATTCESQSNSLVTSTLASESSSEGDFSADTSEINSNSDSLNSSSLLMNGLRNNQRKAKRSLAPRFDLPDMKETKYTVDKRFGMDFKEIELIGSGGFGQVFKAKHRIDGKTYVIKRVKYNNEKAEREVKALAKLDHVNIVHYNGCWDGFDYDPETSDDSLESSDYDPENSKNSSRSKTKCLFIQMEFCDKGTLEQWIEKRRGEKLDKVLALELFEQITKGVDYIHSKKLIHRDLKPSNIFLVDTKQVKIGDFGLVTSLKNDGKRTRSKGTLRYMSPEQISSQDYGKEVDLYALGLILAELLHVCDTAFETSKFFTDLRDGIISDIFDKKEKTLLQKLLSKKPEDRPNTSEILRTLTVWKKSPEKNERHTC
Sequence of eIF-2-alpha kinase GCN2 (Q9P2K8 whole entry): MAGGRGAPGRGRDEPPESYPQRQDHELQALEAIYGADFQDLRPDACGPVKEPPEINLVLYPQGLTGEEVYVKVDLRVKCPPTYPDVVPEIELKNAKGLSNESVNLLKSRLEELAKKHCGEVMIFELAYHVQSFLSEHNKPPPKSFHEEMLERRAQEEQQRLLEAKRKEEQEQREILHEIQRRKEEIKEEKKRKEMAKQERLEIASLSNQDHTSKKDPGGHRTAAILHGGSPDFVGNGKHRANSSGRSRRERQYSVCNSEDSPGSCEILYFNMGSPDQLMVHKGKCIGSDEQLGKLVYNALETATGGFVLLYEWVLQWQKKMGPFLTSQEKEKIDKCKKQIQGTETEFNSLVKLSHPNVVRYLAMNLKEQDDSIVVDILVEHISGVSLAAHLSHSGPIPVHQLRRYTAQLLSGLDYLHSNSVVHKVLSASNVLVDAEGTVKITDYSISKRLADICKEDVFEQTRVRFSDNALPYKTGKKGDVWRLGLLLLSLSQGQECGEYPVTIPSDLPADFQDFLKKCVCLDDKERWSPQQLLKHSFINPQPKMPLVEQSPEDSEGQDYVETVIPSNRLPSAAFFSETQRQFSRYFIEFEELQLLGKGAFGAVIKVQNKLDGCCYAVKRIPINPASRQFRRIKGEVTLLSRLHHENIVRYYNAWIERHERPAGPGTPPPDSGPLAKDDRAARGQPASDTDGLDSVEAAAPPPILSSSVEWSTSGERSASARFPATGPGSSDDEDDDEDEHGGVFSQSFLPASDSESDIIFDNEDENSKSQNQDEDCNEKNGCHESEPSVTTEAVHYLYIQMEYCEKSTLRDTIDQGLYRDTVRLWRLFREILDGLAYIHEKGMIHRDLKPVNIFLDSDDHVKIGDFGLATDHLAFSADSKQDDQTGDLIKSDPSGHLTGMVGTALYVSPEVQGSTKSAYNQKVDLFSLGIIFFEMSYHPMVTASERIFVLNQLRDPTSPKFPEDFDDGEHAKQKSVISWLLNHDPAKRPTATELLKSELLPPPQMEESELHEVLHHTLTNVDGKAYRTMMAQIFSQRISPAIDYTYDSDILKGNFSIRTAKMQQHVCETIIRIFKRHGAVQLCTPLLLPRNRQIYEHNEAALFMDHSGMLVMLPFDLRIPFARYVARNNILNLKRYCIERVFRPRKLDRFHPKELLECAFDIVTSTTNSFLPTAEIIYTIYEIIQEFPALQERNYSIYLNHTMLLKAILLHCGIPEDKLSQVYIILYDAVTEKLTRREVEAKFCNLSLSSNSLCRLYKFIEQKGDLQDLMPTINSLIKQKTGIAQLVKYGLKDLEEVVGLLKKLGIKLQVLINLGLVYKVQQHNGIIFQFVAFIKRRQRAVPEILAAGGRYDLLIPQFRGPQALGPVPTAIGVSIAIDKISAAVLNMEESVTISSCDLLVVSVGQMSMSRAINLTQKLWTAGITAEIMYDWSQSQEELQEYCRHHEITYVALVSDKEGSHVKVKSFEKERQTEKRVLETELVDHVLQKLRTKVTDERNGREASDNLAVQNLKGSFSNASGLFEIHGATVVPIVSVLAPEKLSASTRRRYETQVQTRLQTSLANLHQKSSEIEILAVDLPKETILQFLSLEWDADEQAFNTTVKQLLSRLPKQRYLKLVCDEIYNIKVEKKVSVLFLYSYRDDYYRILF

pIC50 [4]: 7.20
Compound: Cn1cc(-c2ccc3c(c2)CCN3C(=O)Cc2ccncc2)c2c(N)ncnc21

clearance [2]: 12.8 mL/min/kg
pIC50 [3]: 7.52
pIC50 [4]: 9.30
Compound: Cn1cc(-c2ccc3c(c2)CCN3C(=O)Cc2cccc(C(F)(F)F)n2)c2c(N)ncnc21

pIC50 [4]: 7.24
Compound: Cc1ccn(CC(=O)N2CCc3cc(-c4cn(C)c5ncnc(N)c45)ccc32)n1

Continued, compound first:

Compound: Cn1cc(-c2ccc3c(c2)CCN3C(=O)Cc2cccc(C(F)(F)F)c2)c2c(N)ncnc21
pIC50 (Cytochrome P450 2C8): 6.05
pIC50 (Cytochrome P450 2D6 [1]): 4.64
pIC50 (Cytochrome P450 2C19): 5.15
pIC50 (Cytochrome P450 2C9): 5.35
pIC50 (Cytochrome P450 1A2): 4.68
clearance [2]: 21.5 mL/min/kg

Compound: Cc1cc(C)n(CC(=O)N2CCc3cc(-c4cn(C)c5ncnc(N)c45)ccc32)n1
clearance [2]: 2.8 mL/min/kg
pIC50 [3]: 7.00
pIC50 [4]: 8.72

Compound: Cc1cccc(CC(=O)N2CCc3c2ccc(-c2cn(C)c4ncnc(N)c24)c3F)n1
bioavailability [5]: 100%
bioavailability [6]: 100%
bioavailability [7]: 52%
AUC(0-inf) [8]: 6210 ng·h/mL
AUC(0-inf) [9]: 8020 ng·h/mL
AUC(0-inf) [10]: 13400 ng·h/mL
half-life [11]: 186 min
half-life [12]: 84 min
half-life [13]: 75 min
Vd [14]: 2.8 L/kg
Vd [15]: 0.6 L/kg
Vd [16]: 0.72 L/kg
clearance [17]: 15.5 mL/min/kg
clearance [18]: 10.5 mL/min/kg
AUC(0-inf) [19]: 3130 ng·h/mL
AUC(0-inf) [20]: 3920 ng·h/mL
AUC(0-inf) [21]: 3270 ng·h/mL
pIC50 (eIF-2-alpha kinase GCN2): 5.47
pIC50 [22]: 6.04
pIC50 [23]: 6.34
pIC50 (Cytochrome P450 2C8): < 4.60
pIC50 (Cytochrome P450 2D6 [24]): < 4.60
pIC50 (Cytochrome P450 2C19): < 4.60
pIC50 (Cytochrome P450 2C9): 4.61
pIC50 (Cytochrome P450 1A2): < 4.60
clearance [2]: 9.5 mL/min/kg
pIC50 [3]: 7.52
pIC50 [4]: 9.10
